Results as given in article PMC9960487, “A novel Menin-MLL1 inhibitor, DS-1594a, prevents the progression of acute leukemia with rearranged MLL1 or mutated NPM1” (Cancer Cell International, 2023).

Molecular target: T1, hERG channel (Homo sapiens, UniProt Q12809)
T1 construct: gene KCNH2
Test: inhibition of hERG channel current (data not shown)
Type: cell-based

T1 sequence (Q12809 whole entry): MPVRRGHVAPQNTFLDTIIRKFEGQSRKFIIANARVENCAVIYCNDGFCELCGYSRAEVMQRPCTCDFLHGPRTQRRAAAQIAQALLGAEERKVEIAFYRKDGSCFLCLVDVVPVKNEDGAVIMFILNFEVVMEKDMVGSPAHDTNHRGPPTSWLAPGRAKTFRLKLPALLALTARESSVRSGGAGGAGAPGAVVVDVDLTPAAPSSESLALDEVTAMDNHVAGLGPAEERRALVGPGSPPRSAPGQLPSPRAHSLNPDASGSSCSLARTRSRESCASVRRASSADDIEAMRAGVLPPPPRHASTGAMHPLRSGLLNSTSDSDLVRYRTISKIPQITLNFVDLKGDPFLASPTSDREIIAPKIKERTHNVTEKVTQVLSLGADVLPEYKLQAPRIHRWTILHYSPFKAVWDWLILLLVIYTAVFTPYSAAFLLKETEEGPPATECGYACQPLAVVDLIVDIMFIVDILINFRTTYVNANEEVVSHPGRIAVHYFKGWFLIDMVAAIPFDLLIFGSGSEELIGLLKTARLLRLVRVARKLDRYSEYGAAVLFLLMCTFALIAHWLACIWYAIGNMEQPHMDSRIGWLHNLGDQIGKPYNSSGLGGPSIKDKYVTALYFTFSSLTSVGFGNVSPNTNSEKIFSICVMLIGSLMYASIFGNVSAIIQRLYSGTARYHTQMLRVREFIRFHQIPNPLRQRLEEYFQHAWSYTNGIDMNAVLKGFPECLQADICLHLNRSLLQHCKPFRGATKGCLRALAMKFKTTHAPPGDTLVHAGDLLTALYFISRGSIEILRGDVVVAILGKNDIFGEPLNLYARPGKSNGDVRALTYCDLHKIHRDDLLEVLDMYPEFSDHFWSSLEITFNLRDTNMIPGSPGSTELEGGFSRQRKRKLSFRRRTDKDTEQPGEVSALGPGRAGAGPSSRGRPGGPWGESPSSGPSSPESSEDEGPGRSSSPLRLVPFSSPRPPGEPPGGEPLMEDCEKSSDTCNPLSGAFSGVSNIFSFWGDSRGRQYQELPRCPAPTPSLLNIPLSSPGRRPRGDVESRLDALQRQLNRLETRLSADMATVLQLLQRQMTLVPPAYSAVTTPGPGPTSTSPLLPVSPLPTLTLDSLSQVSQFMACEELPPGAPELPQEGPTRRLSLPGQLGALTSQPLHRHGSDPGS

Compound `COc1cc(-c2ccc(CN[C@H]3C[C@@H](O)[C@@H](N(C)c4ncnc5sc(CC(F)(F)F)cc45)C3)cc2)nnc1OC` [DS-1594a, (1R, 2S, 4R)-4-({[4-(5,6-dimethoxypyridazin-3-yl)phenyl]methyl}amino)-2-{methyl[6-(2,2,2-trifluoroethyl)thieno[2,3-d]pyrimidin-4-yl]amino}cyclopentan-1-ol] has an IC50 of 300 nM.
